# Columns and labels:
# [1] = molecular target: 20S proteasome chymotrypsin-like activity (CT-L) (Homo sapiens, UniProt P28074); test: 20S proteasome chymotrypsin-like (CT-L) activity inhibition; type: biochemical
# Excerpt: As used herein, the term “inhibitor” is meant to describe a compound that blocks or reduces an activity of an enzyme (for example, inhibition of proteolytic cleavage of standard fluorogenic peptide substrates such as suc-LLVY-AMC, Box-LLR-AMC and Z-LLE-AMC, inhibition of various catalytic activities of the 20S proteasome). An inhibitor can act with competitive, uncompetitive, or noncompetitive inhibition. An inhibitor can bind reversibly or irreversibly, and therefore the term includes compounds that are suicide substrates of an enzyme. An inhibitor can modify one or more sites on or near the active site of the enzyme, or it can cause a conformational change elsewhere on the enzyme.
# The chymotrypsin-like activity of 20S proteasome is characterized by cleavage of peptides in the immediate vicinity of large hydrophobic residues. In particular, the chymotrypsin-like activity of Ntn hydrolases can be determined by cleavage of a standard substrate. Examples of such substrates are known in the art. For example, a leucylvalinyltyrosine derivative can be used. Enzyme kinetic assays are disclosed in U.S. application Ser. No. 09/569748, Example 2 and Stein et al., Biochem. (1996), 35, 3899-3908.
# [2] = molecular target: T1, Cell-based CT-L (proteasome chymotrypsin-like activity) (Homo sapiens, UniProt P28074); test: Cell-based proteasome CT-L activity inhibition
# T1 construct: endogenous in cells
# T1 sequence (P28074 60-263): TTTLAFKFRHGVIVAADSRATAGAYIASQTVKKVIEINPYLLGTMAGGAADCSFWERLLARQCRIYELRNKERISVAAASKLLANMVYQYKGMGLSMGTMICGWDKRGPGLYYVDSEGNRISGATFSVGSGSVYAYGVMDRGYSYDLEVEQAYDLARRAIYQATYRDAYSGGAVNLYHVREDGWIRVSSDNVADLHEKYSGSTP
Structure (SMILES),IC50 [1] [nM],IC50 [2] [nM]
CC(=O)N[C@@H](CCc1ccccc1)C(=O)N[C@@H](CC(C)C)C(=O)N[C@@H](CO)C(=O)N[C@@H](CC(C)C)C(=O)[C@@]1(C)CO1 [Compound 2],< 50,< 500
CC(C)C[C@H](NC(=O)c1ccccc1)C(=O)N[C@@H](Cc1ccccc1)C(=O)N[C@@H](CC(C)C)C(=O)[C@@]1(C)CO1 [Compound 3],< 50,< 50
CC(C)C[C@H](NC(=O)C1CCN(S(=O)(=O)c2cccs2)CC1)C(=O)N[C@@H](Cc1ccccc1)C(=O)N[C@@H](CC(C)C)C(=O)[C@@]1(C)CO1 [Compound 7],< 500,< 500
Cc1ccc(CCC(=O)N[C@@H](CC(C)C)C(=O)N[C@@H](Cc2ccccc2)C(=O)N[C@@H](CC(C)C)C(=O)[C@@]2(C)CO2)cc1 [Compound 8],< 50,< 50
CC(C)C[C@H](NC(=O)[C@H](CCc1ccccc1)NC(=O)CN1CCOCC1)C(=O)N[C@@H](Cc1ccc(F)cc1)C(=O)N[C@@H](CC(C)C)C(=O)[C@@]1(C)CO1 [Compound 9],< 50,< 50
CC(C)C[C@H](NS(=O)(=O)c1ccsc1)C(=O)N[C@@H](Cc1ccccc1)C(=O)N[C@@H](CC(C)C)C(=O)[C@@]1(C)CO1 [Compound 14],< 50,< 50
COc1ccc(NC(=S)N[C@@H](CC(C)C)C(=O)N[C@@H](Cc2ccccc2)C(=O)N[C@@H](CC(C)C)C(=O)[C@@]2(C)CO2)cc1 [Compound 16],< 50,< 50
COc1ccc(NC(=O)N[C@@H](CC(C)C)C(=O)N[C@@H](Cc2ccccc2)C(=O)N[C@@H](CC(C)C)C(=O)[C@@]2(C)CO2)cc1 [Compound 17],< 50,< 50
CC(C)C[C@H](NC(=O)CN1CCOCC1)C(=O)N[C@@H](Cc1ccccc1)C(=O)N[C@@H](CC(C)C)C(=O)[C@@]1(C)CO1 [Compound 18],< 50,< 50

# — patent publication US8088741B2, “Compounds for enzyme inhibition” (Onyx Therapeutics, Inc., priority 2004, dated 2012)
